Earlier results, collected in patent US12285520B2, “Product and manufacturing process for a gum” (McNeil AB, priority 2020, dated 2025).

Details: nicotine; stated as general knowledge, no experiment described

Which pKa does the source give for `CN1CCCC1c1cccnc1` (stereo not shown) [nicotine] here?
The pKa was “approximately 7.8”.
